Values quoted from earlier work in patent US20090142809A1, “Method for Cleaving Cervimycin Monoesters” (LEIBNIZ-INSTITUT FÜR NATURSTOFF-FORSCHUNG UND INFE, priority 2005, published 2009).

Columns and labels:
[1] = tested on: multiresistant staphylococci; details: statement in words in the background section
[2] = tested on: vancomycin-resistant Enterococcus faecalis; details: statement in words in the background section

Compound: COC1=CC(=O)c2c(cc3c(c2O)C(=O)[C@@]2(O[C@H]4CC[C@H](O[C@H]5CC[C@H](O)[C@@H](C)O5)[C@@H](C)O4)C(O)=C(C(N)=O)C(=O)[C@H](O[C@H]4CC[C@H](O[C@H]5CC[C@H](O[C@H]6CC[C@H](O[C@H]7CC[C@H](O)[C@H](C)O7)[C@H](C)O6)[C@H](C)O5)[C@@H](C)O4)[C@H]2C3)C1=O [cervimycin K]
- activity against multiresistant staphylococci [1]: extremely strong activity
- activity against the vancomycin-resistant Enterococcus faecalis [2]: extremely strong activity
